This note sets out measurements from ChEMBL document CHEMBL1158341, “A macrolactone from benzo[a]phenazine with potent activity against Mycobacterium tuberculosis” (2009).

Experiment [1] concerns Mycobacterium tuberculosis. Put plainly: Antimycobacterial activity against Mycobacterium tuberculosis H37Rv ATCC 27294 after 24 hrs by microplate alamar blue assay. In kind it is functional. (The colour change of resazurin is a common sign of viable cells or microbes.)
For experiment [2], the system named is Mycobacterium tuberculosis. Put plainly: Antimycobacterial activity against Mycobacterium tuberculosis H37Rv ATCC 27294 at 100 ug/mL after 24 hrs by microplate alamar blue assay. In kind it is functional.

The structures appear in SMILES notation. In brackets after ≈: the same amount, converted by molar mass. Activity calls are given as the source filed them. The rule behind the calls is not given here.

As for `CO[C@H]1/C=C/O[C@@]2(C)Oc3c(C)c(O)c4c(O)c(c(/C=N/N5CCN(C)CC5)c(O)c4c3C2=O)NC(=O)/C(C)=C\C=C\[C@H](C)[C@H](O)[C@@H](C)[C@@H](O)[C@@H](C)[C@H](OC(C)=O)[C@@H]1C` [RIFAMPIN], the MIC in experiment [1] stood at 1 µg/mL (≈ 1.22 µM). For `CC1(C)CCC(=O)c2nc3ccccc3nc2-c2ccccc2C(=O)O1`, in experiment [1], the MIC amounted to 0.62 µg/mL (≈ 1.79 µM). The inhibition at 100 µg/mL in experiment [2] turned out to be 90%.

As to `CC1(C)CCC(=O)c2nccnc2-c2ccccc2C(=O)O1`, the MIC in experiment [1] stood at 50 µg/mL (≈ 169 µM). The compound also yielded an inhibition at 100 µg/mL in experiment [2] of 90%. Consider `CC(C)(O)CCCC1(O)C(=O)c2ccccc2-c2nc3ccccc3nc21` (stereo unspecified), for which the MIC result in experiment [1] was “inactive”. In experiment [2], this compound registered an inhibition at 100 µg/mL of 90%. As for `CC1(C)CC(=O)c2nc3ccccc3nc2-c2ccccc2C(=O)O1`, the MIC in experiment [1] turned out to be 100 µg/mL (≈ 301 µM). The same compound came in with an inhibition at 100 µg/mL in experiment [2] of 90%. `CC1(C)OC(=O)c2ccccc2-c2c(nc3ccccc3[n+]2[O-])C(=O)CC1Br` (stereo unspecified) yielded an MIC in experiment [1] of 25 µg/mL (≈ 56.7 µM). In experiment [2], the inhibition at 100 µg/mL stood at 90%.

For orientation: MIC means the lowest concentration found to suppress growth. Broadly, the inhibition is the relative decrease from the control value, in per cent. A low value points to a weak effect.
